# Measurements published in US12742284B2, “Antimicrobial polymer coatings on textiles” (MICROBAN PRODUCTS COMPANY, priority 2022, dated 2023).
# Tested on: Kp
# Experiment: AATCC TM 100 antimicrobial test on treated polyester after home launderings
# Details: for AATCC TM 100, Antimicrobial Test result (Kp - log reduction): 1.5% o.w.f. on polyester
structure (smiles),measurement,setting,value
[Na+].[O-][n+]1ccccc1[S-] [Sodium Pyrithione],"AATCC TM 100, Antimicrobial Test result (Kp - log reduction)",1 HL,0.5 log reduction
same,"AATCC TM 100, Antimicrobial Test result (Kp - log reduction)",25 HL,0 log reduction
same,antimicrobial performance (in words),after one cycle of home laundering,little efficacy
same,antimicrobial performance (in words),after twenty-five home launderings,did not have antimicrobial performance
